Among the test systems are HOP-92 NSCLC; ACHN renal; CAKI-1 renal; M14 melanoma; OVCAR-3 ovarian; SNB-19 CNS; NCI-H226 lung; SF-295 CNS; HCT-15 colon; MALME-3M melanoma.
Common to all, as to experiment: DTP human tumour cell line panel, 48 h

Molecules are shown by their SMILES. Where “and” joins values, the source holds several entries; their conditions need not be identical. Equal values may be shown once.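 48-hour exposure; five concentrations; linearly interpolated endpoints. GI50: concentration for 50% inhibition of growth. TGI: concentration producing complete growth inhibition.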 Where a SMILES comes first, the peptide text is derived from it. [ ]: non-standard residue; d: D form. The star is where a group is joined. Bn2Val = CC(C)[C@@H](C(=O)*)N(Cc1ccccc1)Cc1ccccc1; NH(3,4-diMeO-benzyl) = COc1ccc(CN*)cc1OC; NMeV = CN[C@H](C(=O)O)C(C)C; dNMeA = CN[C@H](C)C(=O)O

In general, GI50 refers to the concentration at which growth is held to half of that of the control. Usually TGI stands for the concentration giving total growth inhibition. On to `Cc1c(N2C(=O)/C(=C\c3ccccc3O)N=C2c2ccccc2)c(=O)n(-c2ccccc2)n1C`, for which the GI50 in the test on HOP-92 NSCLC is 17.6 µM; in the test on ACHN renal, 53.8 µM; in the test with CAKI-1 renal it was 15.6 µM; in the test on M14 melanoma, more than 100 µM; with OVCAR-3 ovarian it was more than 100 µM; in the test on SNB-19 CNS, 54.4 µM. For the same molecule, the GI50 in the test on NCI-H226 lung is 63.7 µM; in the test with SF-295 CNS it was 26.2 µM; in the test with HCT-15 colon, more than 100 µM; with MALME-3M melanoma it was 49.1 µM. Also, the total growth inhibition concentration (TGI) was 68.4 µM with HOP-92 NSCLC; more than 100 µM with ACHN renal; 76.9 µM in the test with CAKI-1 renal; more than 100 µM in the test with M14 melanoma; more than 100 µM in the test on OVCAR-3 ovarian; more than 100 µM with SNB-19 CNS. The TGI in the test on NCI-H226 lung was more than 100 µM; with SF-295 CNS it was 78.6 µM; in the test with HCT-15 colon, more than 100 µM; with MALME-3M melanoma it was more than 100 µM.
`CC1=C2[C@@H](CC1)[C@]1(C)O[C@@](C(C)C)(C[C@H]1OC(=O)[C@H](C)O)[C@H]2OC(=O)/C=C/c1ccccc1`: the GI50 was 5.95 µM in the test on HOP-92 NSCLC; 0.145 µM with ACHN renal; 6.12 µM in the test with CAKI-1 renal; 13.4 µM in the test on M14 melanoma; 12.5 µM in the test with OVCAR-3 ovarian; 17.1 µM in the test on SNB-19 CNS. The GI50 in the test on NCI-H226 lung was 12.9 µM; in the test with SF-295 CNS, 11.5 µM; in the test on HCT-15 colon it was 11.2 µM; in the test on MALME-3M melanoma it was 14.9 µM. Also, the concentration for total growth inhibition (TGI) was 19.4 µM in the test on HOP-92 NSCLC; 13 µM in the test on ACHN renal; 26 µM in the test on CAKI-1 renal; 32.5 µM with M14 melanoma; 26.1 µM with OVCAR-3 ovarian; 37.2 µM in the test on SNB-19 CNS. The TGI with NCI-H226 lung amounted to 29.6 µM; in the test with SF-295 CNS, 24.8 µM; in the test on HCT-15 colon, 25.4 µM; in the test with MALME-3M melanoma it was 31.6 µM.
`COc1ccc(CNC(=O)[C@@H](C)N(C)C(=O)[C@@H]2CCCN2C(=O)[C@H](C(C)C)N(C)C(=O)[C@@H](NC(=O)[C@H](C(C)C)N(Cc2ccccc2)Cc2ccccc2)C(C)C)cc1OC` (Bn2Val-V[NMeV]P[dNMeA]-{NH(3,4-diMeO-benzyl)}): the GI50 with HOP-92 NSCLC was 10.2 µM; in the test with ACHN renal, 8.21 µM; with CAKI-1 renal it was 12.7 µM; with M14 melanoma, 63.2 µM; with OVCAR-3 ovarian, 10 µM; in the test on SNB-19 CNS it was more than 100 µM. Also, the GI50 was 13.7 µM in the test with NCI-H226 lung, 9.29 µM in the test on SF-295 CNS, 5.98 µM with HCT-15 colon and 14.8 µM in the test with MALME-3M melanoma. In addition, the TGI with HOP-92 NSCLC is 16.9 µM and 23.4 µM; in the test on ACHN renal, 14.9 µM and 23.9 µM; with CAKI-1 renal, 47 µM and 30.5 µM; with M14 melanoma, 16.9 µM and > 100 µM; with OVCAR-3 ovarian, 14.6 µM and 24.7 µM; in the test with SNB-19 CNS it was 23.9 µM and > 100 µM. The TGI is 15.3 µM and 31.3 µM in the test on NCI-H226 lung; 13.8 µM and 23 µM in the test with SF-295 CNS; 21.5 µM and 28.8 µM in the test on HCT-15 colon; 15.6 µM and 31.9 µM in the test on MALME-3M melanoma.
In the case of `CCCCCCCCCCCCOC1C(CNCC2OC3OC(C)(C)OC3C2NC(=O)Nc2ccc(C(=O)OCC)cc2)OC2OC(C)(C)OC21` (stereo not given), the GI50 was 1.84 µM in the test with HOP-92 NSCLC; 3.43 µM in the test with ACHN renal; 6.74 µM in the test with CAKI-1 renal; 1.77 µM in the test on M14 melanoma; 3.41 µM with OVCAR-3 ovarian; 13.7 µM in the test on SNB-19 CNS. Besides, the GI50 was 6.23 µM with NCI-H226 lung, 6.31 µM in the test with SF-295 CNS, 2.46 µM in the test on HCT-15 colon and 8.99 µM with MALME-3M melanoma. For the same molecule, the concentration for total growth inhibition (TGI) in the test on HOP-92 NSCLC was 3.92 µM; in the test on ACHN renal, 10.9 µM; in the test with CAKI-1 renal it was 19.8 µM; in the test on M14 melanoma, 3.38 µM; in the test on OVCAR-3 ovarian, 11.5 µM; in the test with SNB-19 CNS, 27.7 µM. In addition, the total growth inhibition concentration (TGI) with NCI-H226 lung is 22.7 µM; with SF-295 CNS, 20 µM; in the test on HCT-15 colon, 6.14 µM; in the test with MALME-3M melanoma it was 29.1 µM.
Consider `C[C@@H]1Cc2c([nH]c3ccccc23)[C@@H](c2c(F)cc(/C=C/C(=O)O)cc2F)N1CC(C)(C)F`, for which the GI50 was 15 µM with HOP-92 NSCLC; 12.7 µM in the test on ACHN renal; 18.8 µM with CAKI-1 renal; 14 µM with M14 melanoma; 13.8 µM in the test with OVCAR-3 ovarian; 13.7 µM with SNB-19 CNS. In addition, the GI50 with NCI-H226 lung is 18.2 µM; in the test on SF-295 CNS, 8.65 µM; with HCT-15 colon, 8.14 µM; in the test on MALME-3M melanoma, 15.5 µM. Moreover, the concentration for total growth inhibition (TGI) came out at 30.8 µM in the test with HOP-92 NSCLC; 28 µM in the test on ACHN renal; 61.8 µM in the test with CAKI-1 renal; 34.5 µM in the test with M14 melanoma; 29.1 µM with OVCAR-3 ovarian; 32.3 µM with SNB-19 CNS. Besides, the total growth inhibition concentration (TGI) came out at 45.2 µM with NCI-H226 lung, 22.6 µM in the test on SF-295 CNS, 24.3 µM with HCT-15 colon and 34.3 µM in the test with MALME-3M melanoma.
In the case of `COc1ccccc1NC(=O)c1ccc(/C=C/C(=O)c2nccn2C)cc1`, the GI50 is 0.673 µM in the test on HOP-92 NSCLC; 0.532 µM in the test with ACHN renal; 0.453 µM in the test on CAKI-1 renal; 0.536 µM in the test with M14 melanoma; 0.459 µM in the test on OVCAR-3 ovarian; 0.553 µM in the test on SNB-19 CNS. Moreover, the GI50 with NCI-H226 lung was 0.588 µM; in the test on SF-295 CNS it was 0.658 µM; in the test with HCT-15 colon, 0.363 µM; with MALME-3M melanoma, 0.616 µM. Besides, the TGI in the test on HOP-92 NSCLC was found to be 5.01 µM; in the test on ACHN renal, 1.09 µM; in the test with CAKI-1 renal it was 1.32 µM; with M14 melanoma, 1.31 µM; in the test with OVCAR-3 ovarian, 0.988 µM; with SNB-19 CNS, 1.59 µM. Also, the total growth inhibition concentration (TGI) came to 1.69 µM in the test on NCI-H226 lung, 1.76 µM in the test on SF-295 CNS, 0.843 µM in the test with HCT-15 colon and 1.73 µM with MALME-3M melanoma.
Regarding `CN1CCCNCCN(CCc2ccccn2)CCCN(C)CC1`, the TGI with HOP-92 NSCLC, in the test on ACHN renal, in the test with CAKI-1 renal, with M14 melanoma, with OVCAR-3 ovarian and in the test on SNB-19 CNS was more than 100 µM throughout. For the same molecule, the TGI in the test with NCI-H226 lung was more than 100 µM; in the test with SF-295 CNS, more than 100 µM; in the test on HCT-15 colon, more than 62.6 µM; in the test on MALME-3M melanoma it was more than 100 µM.
As for `S=C1NCCN1C1=Nc2ccccc2CO1`, the GI50 in the test with HOP-92 NSCLC, with ACHN renal, in the test on CAKI-1 renal, in the test with M14 melanoma, in the test with OVCAR-3 ovarian and in the test on SNB-19 CNS was more than 100 µM each time. Besides, the GI50 in the test on NCI-H226 lung, in the test on SF-295 CNS, in the test on HCT-15 colon and in the test with MALME-3M melanoma was more than 100 µM each time. Also, the concentration for total growth inhibition (TGI) with HOP-92 NSCLC, in the test on ACHN renal, in the test on CAKI-1 renal, with M14 melanoma, in the test with OVCAR-3 ovarian and with SNB-19 CNS was more than 100 µM throughout. In addition, the total growth inhibition concentration (TGI) in the test on NCI-H226 lung, with SF-295 CNS, in the test with HCT-15 colon and in the test on MALME-3M melanoma was more than 100 µM in each case.

The values are drawn from PubChem BioAssay (NCI).
